Source: the NIST ThermoML archive (doi:10.1016/j.jct.2015.01.015)
Numbers after ± are expanded uncertainties.

Legend:
[1] = Crystal; DTA
[2] = Molar enthalpy of transition or fusion; details: Crystal; DSC

Row | Normal melting temperature [1] [°C] | Molar enthalpy of transition or fusion [2] [kcal/mol] | SMILES
1 | 160.0 ± 1.1 | 9.06 ± 0.574 | COc1ccc2c(c1)c(CC(=O)O)c(C)n2C(=O)c1ccc(Cl)cc1
2 | 128.6 ± 1.1 | 5.4 ± 0.335 | NC(=O)c1cccnc1 [3-pyridinecarboxamide]
